Several values for one entry are separate records, joined by “and”; a condition that tells them apart may be missing. Identical values can stand only once. Like-named read-outs stand apart in the source and are kept apart here.
Legend:
BCL-2 = BCL-2 (Homo sapiens, UniProt P10415); test: Time-resolved FRET binding assay
Protocol: (§1) Binding affinities for MCL-1, BCL-2, BCL-XL, BCL-W, and BCL2-A1 were determined using a time-resolved fluorescence resonance energy transfer (FRET) assay. Test compounds were serially diluted in DMSO starting at […] (20× starting concentration; 100% DMSO followed by a 1:10 dilution of the compound DMSO plate into assay buffer); 10 µL of the compound in 10% DMSO was then transferred into a 384-well plate (low-volume Corning #3673 assay plate). Glutathione S-transferase (GST)-tagged recombinant BCL-2, BCL-XL, MCL-1, BCL-W, or BCL2-A1 protein (1 nM each) were mixed with 100 nM Oregon Green™-labeled f-BAK peptide probe and 1 nM Tb-labeled anti-GST antibody were mixed. Then 10 µL of a 2× protein/probe/antibody mix was added to each well of increasing concentrations of test compound in assay buffer (20 mM potassium phosphate, pH 7.6, 50 mM NaCl, 1 mM ethylenediaminetetraacetic acid disodium salt dihydrate, 0.05% pluronic acid F-68, 1 mM DL-dithiothreitol) at room temperature (final concentrations listed in Supplementary Table S2). The samples were then mixed on a shaker for 1 min and incubated for an additional 1 h at room temperature. For each assay plate, a probe/antibody and protein/antibody/probe mixture were included as a negative and a positive control, respectively. Fluorescence was measured on the EnVision™ (Perkin Elmer) using a 340/35-nm excitation filter and 520/525- (F-Bak) and 495/510-nm (Tb-labeled anti-glutathione S-transferase [GST] antibody) emission filters. Dissociation constants were determined using Wang’s equation[35]. The time-resolved FRET assay can be performed in the presence of varying concentrations of human serum to determine apparent half-maximal inhibitory concentration after serum protein binding.

BCL-XL = BCL-XL (Homo sapiens, UniProt Q07817); test: Time-resolved FRET binding assay
Chain of BCL-XL (Q07817 whole entry): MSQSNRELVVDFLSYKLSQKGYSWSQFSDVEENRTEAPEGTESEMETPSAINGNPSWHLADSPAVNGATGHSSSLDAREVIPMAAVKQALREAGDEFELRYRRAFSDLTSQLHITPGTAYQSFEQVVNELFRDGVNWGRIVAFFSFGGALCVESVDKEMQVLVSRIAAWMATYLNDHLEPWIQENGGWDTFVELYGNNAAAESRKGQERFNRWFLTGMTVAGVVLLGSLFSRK
Protocol: as §1

human MCL-1 = human MCL-1 (Homo sapiens, UniProt Q07820); test: Time-resolved FRET binding assay
Chain of human MCL-1 (Q07820 whole entry): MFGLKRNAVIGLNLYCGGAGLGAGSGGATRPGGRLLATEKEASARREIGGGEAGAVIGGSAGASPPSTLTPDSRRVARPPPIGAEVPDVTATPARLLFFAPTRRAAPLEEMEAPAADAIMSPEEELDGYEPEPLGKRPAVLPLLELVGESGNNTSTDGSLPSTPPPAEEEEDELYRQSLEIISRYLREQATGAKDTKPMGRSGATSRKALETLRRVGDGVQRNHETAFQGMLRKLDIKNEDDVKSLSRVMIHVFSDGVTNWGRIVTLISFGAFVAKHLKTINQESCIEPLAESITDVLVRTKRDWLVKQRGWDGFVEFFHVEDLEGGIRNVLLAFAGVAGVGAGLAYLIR
Protocol: as §1, with “Test” for “Binding affinities for MCL-1, BCL-2, BCL-XL, BCL-W, and BCL2-A1 were determined using a time-resolved fluorescence resonance energy transfer (FRET) assay. Test”

BCL2-A1 = biological target: T1, BCL2-A1 (Homo sapiens, UniProt Q16548); test: Time-resolved FRET binding assay
T1 sequence (Q16548 1-175): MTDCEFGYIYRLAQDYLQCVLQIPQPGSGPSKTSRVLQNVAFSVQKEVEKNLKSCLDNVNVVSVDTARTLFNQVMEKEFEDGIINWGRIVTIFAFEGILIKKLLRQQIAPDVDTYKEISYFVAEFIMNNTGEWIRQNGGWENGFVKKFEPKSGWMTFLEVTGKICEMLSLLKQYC
Protocol: as §1

BCL-W = biological target: T2, BCL-W (Homo sapiens, UniProt Q92843); test: Time-resolved FRET binding assay
T2 sequence (Q92843 1-193): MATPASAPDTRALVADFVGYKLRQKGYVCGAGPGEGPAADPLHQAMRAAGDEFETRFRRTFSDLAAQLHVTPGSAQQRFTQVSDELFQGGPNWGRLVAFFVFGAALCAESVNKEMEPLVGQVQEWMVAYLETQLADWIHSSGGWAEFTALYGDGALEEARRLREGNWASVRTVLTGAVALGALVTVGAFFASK
Protocol: as §1

H929 cells = test: In vitro cell viability assay (CellTiter-Glo); assay type: cell-based, human; conditions: Homo sapiens
Protocol: (§2) All cell lines were grown and treated in RPMI 1640 or Dulbecco’s modified Eagle medium (Sigma, St. Louis, MO) supplemented with 10% fetal bovine serum (Gibco) or 10% human serum (Sigma) and maintained in a humidified incubator at 5% CO2 and 37 °C. DLD-1, MV4-11, NCI-H929 (all ATCC, Manassas, VA, USA) and AMO-1 (DSMZ, Braunschweig, Germany) cells were plated 4000 cells per well in 384-well tissue culture plates and treated with compounds of interest for 24 h at 37 °C, 5% CO2 humidified incubator. Each concentration was tested in duplicate at least 3 separate times. Adherent cells were allowed to adhere overnight prior to treatment. Alternatively, AMO-1 or NCI-H929 cells were treated with ABBV-467 for the indicated contact times (1–24 h) at 37 °C in a 5% CO2 humidified incubator and washed 3 times with compound-free media prior to incubation for the remainder of a 24-h treatment period. Cell viability was subsequently determined using CellTiter-Glo (Promega, Madison, WI, USA) according to the manufacturer’s instructions.
(§3) For in vitro viability assays, mean EC50 and EC90 values were determined from the resulting dose-response curves from at least 3 independent experiments, and depict the mean ± standard error of the mean.
(§4) Fig. 2 Apoptosis induced by ABBV-467 is mechanism based and induces cell death in MCL-1-dependent cell lines after short target engagement periods. H929 cells were treated with ABBV-467 in the presence or absence of the pan-caspase inhibitor z-VAD-fmk (50 µM) and the impact on caspase-3/7 activation (a), mitochondrial membrane potential (ΔΨm; b), and apoptosis (c) determined. Alternatively, BAK-deficient SKBR3 cells were treated with ABBV-467 for 24 h and the impact on cell viability compared with the parental cell line, determined by CellTiter-Glo. Inset depicts a western blot of BAK and BAX expression in SKBR3 cell variants using GAPDH as a loading control. Each of the 3 proteins were probed on separate blots (d). Data in (a–d) are presented as the mean ± standard error of the mean. H929 and AMO-1 cells were treated with ABBV-467 at the indicated concentrations and the impact on caspase-3/7 activation and viability (DRAQ7-positive) cells determined over time by Incucyte®. Data are presented as the mean ± standard deviation (e). H929 or AMO-1 cells were cultured in media containing 10% human serum and treated with ABBV-467 for the indicated contact times. Cells were subsequently washed 3 times with drug-free media and incubated in drug-free media for the remainder of the 24-h treatment period at 37 °C before cell viability was determined by CellTiter-Glo. Mean EC50 and EC90 values were determined from the resulting dose-response curves from at least 3 independent experiments, each assessed in quadruplicate, and depict the mean ± standard error of the mean. Presented ABBV-467 dose-response curves in H929 and AMO-1 cells were compiled from at least 3 independent experiments (f).

MV4-11 cells = test: In vitro cell viability assay (CellTiter-Glo); assay type: cell-based, human; conditions: Homo sapiens
Protocol: as §2, §3

DLD-1 cells = test: In vitro cell viability assay (CellTiter-Glo); assay type: cell-based, human
Protocol: as §2, §3

AMO-1 cells = test: In vitro cell viability assay (CellTiter-Glo); assay type: cell-based, human; conditions: Homo sapiens
Protocol: as §2, §3, §4

[1] = TR-FRET, arithmetic mean, read-out: Arithmetic Mean Ki, BCL-2
[2] = TR-FRET, individual determinations, read-out: Individual Ki, BCL-2
[3] = read-out: TR-FRET, Ki, nM BCL-2
[4] = TR-FRET, arithmetic mean, read-out: Arithmetic Mean Ki, BCL-XL
[5] = TR-FRET, individual determinations, read-out: Individual Ki, BCL-XL
[6] = read-out: TR-FRET, Ki, nM BCL-XL

Chain of BCL-2 (P10415 whole entry): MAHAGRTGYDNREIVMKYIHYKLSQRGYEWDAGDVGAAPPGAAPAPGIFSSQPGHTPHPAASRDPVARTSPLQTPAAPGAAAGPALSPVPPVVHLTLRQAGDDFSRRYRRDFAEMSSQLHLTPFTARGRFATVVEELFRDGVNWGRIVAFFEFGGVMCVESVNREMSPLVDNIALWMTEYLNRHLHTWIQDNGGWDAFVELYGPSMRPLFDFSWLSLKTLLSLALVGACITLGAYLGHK

COc1ccccc1-c1nccc(COc2ccc3cc2CC(C(=O)O)Oc2ncnc4sc(-c5ccc(F)cc5)c(c24)-c2ccc(c(Cl)c2C)N(CCN2CCN(C)CC2)C3)n1 (stereo not shown) [Compound 2]
Ki (BCL-2; [1]): > 1200 nM
Ki (BCL-2; [2]): > 1200 nM
Ki (BCL-2; [3]): > 1200 nM
Ki (BCL-XL; [4]): > 660 nM
Ki (BCL-XL; [5]): > 660 nM
Ki (BCL-XL; [6]): > 660 nM
Ki (human MCL-1; TR-FRET, individual determinations, read-out: Individual Ki, MCL1): 2.48 nM and 5.01 nM and 9.14 nM
Ki (human MCL-1; read-out: TR-FRET, Ki, nM MCL-1): 5.54 nM

COc1ccccc1-c1nccc(COc2ccccc2CC(Oc2ncnc3sc(-c4ccc(F)cc4)c(-c4ccc(OCCN5CCN(C)CC5)c(Cl)c4C)c23)C(=O)O)n1 (stereo not shown) [Compound 1, reference compound]
Ki (BCL-2; [1]): 599 nM
Ki (BCL-2; [2]): 319 nM and 376 nM and 955 nM and 745 nM
Ki (BCL-2; [3]): 599 nM
Ki (BCL-XL; [4]): > 660 nM
Ki (BCL-XL; [5]): > 660 nM
Ki (BCL-XL; [6]): > 660 nM
Ki (BCL2-A1; TR-FRET, arithmetic mean, read-out: Arithmetic Mean Ki, BCL2-A1): > 468 nM
Ki (BCL2-A1; TR-FRET, individual determinations, read-out: Individual Ki, BCL2-A1): > 468 nM
Ki (BCL2-A1; read-out: TR-FRET, Ki, nM BCL2-A1): > 468 nM
Ki (BCL-W; TR-FRET, arithmetic mean, read-out: Arithmetic Mean Ki, BCL-W): > 468 nM
Ki (BCL-W; TR-FRET, individual determinations, read-out: Individual Ki, BCL-W): > 468 nM
Ki (BCL-W; read-out: TR-FRET, Ki, nM BCL-W): > 468 nM
EC50 (H929 cells; NCI-H929, 24 h, read-out: H929 EC50 (nM, 10% FBS), 10% FBS, 24 h continuous treatment): 4.75 nM
EC50 (H929 cells; NCI-H929, NCI-H929, arithmetic mean, read-out: Arithmetic Mean EC50 µM): 4.75 nM
EC50 (MV4-11 cells; MV4-11, 24 h, read-out: MV4-11 EC50 (nM, 10% FBS), 10% FBS, 24 h continuous treatment): 10.9 nM
EC50 (MV4-11 cells; MV4-11, MV4-11, arithmetic mean, read-out: Arithmetic Mean EC50 µM): 10.9 nM
EC50 (DLD-1 cells; DLD-1, individual determinations, listed as MIK665, read-out: Individual EC50): > 1000 nM and > 10000 nM and 4770 nM and 3350 nM and 6620 nM and 4370 nM and 4270 nM and 5810 nM and 4060 nM
EC50 (DLD-1 cells; Homo sapiens, DLD-1, 24 h, read-out: DLD-1 EC50 (nM, 10% FBS), 10% FBS, 24 h continuous treatment): 4750 nM
EC50 (AMO-1 cells; AMO1, 24 h, read-out: AMO-1 EC50 (nM, 10% FBS), 10% FBS, 24 h continuous treatment): 2.06 nM
EC50 (AMO-1 cells; AMO1, AMO-1, arithmetic mean, read-out: Arithmetic Mean EC50 µM): 2.06 nM
